In PubChem BioAssay (NCI):
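How tested: cells in 96-well plates exposed to compound for 48 hours at five concentrations. The concentration for 50% growth inhibition is given as GI50. Definition used: TGI = concentration required for complete inhibition of growth.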

Tests used:
Experiment in all cases: DTP human tumour cell line panel, 48 h
[1] = tested on: SF-295 CNS
[2] = tested on: SR leukemia
[3] = tested on: SN12C renal
[4] = tested on: TK-10 renal
[5] = tested on: NCI/ADR-RES ovarian
[6] = tested on: HCT-15 colon
[7] = tested on: LOX IMVI melanoma
[8] = tested on: KM12 colon
[9] = tested on: HL-60(TB) leukemia
[10] = tested on: NCI-H23 lung
[11] = tested on: EKVX NSCLC
[12] = tested on: OVCAR-5 ovarian
[13] = tested on: HOP-62 NSCLC
[14] = tested on: BT-549 breast
[15] = tested on: MALME-3M melanoma
[16] = tested on: OVCAR-3 ovarian
[17] = tested on: COLO 205 colon
[18] = tested on: SF-539 CNS
[19] = tested on: NCI-H460 lung
[20] = tested on: RXF 393 renal
[21] = tested on: MDA-MB-231 breast
[22] = tested on: SF-268 CNS
[23] = tested on: SK-MEL-5 melanoma
[24] = tested on: MDA-MB-468 breast
[25] = tested on: A498 renal
[26] = tested on: NCI-H226 lung
[27] = tested on: HS 578T breast
[28] = tested on: SNB-75 CNS
[29] = tested on: M14 melanoma
[30] = tested on: HT29 colon

In the case of COc1cnc2c(c1)C(=O)c1c-2n(CCCNCCO)c(=O)c2cc(F)ccc12, the GI50 [1] is reported as 306 nM, the TGI [1] is reported as 1230 nM and the GI50 [2] is reported as 97.1 nM. It also gave a GI50 [3] of 287 nM, a TGI [3] of 1560 nM and a GI50 [4] of 1470 nM. For the same compound, the TGI [4] was 4180 nM, the GI50 [5] was 678 nM and the TGI [5] was 2580 nM. For the same compound, the GI50 [6] was 328 nM, the TGI [6] was 1560 nM and the GI50 [7] was 167 nM. The TGI [7] was 502 nM, the GI50 [8] was 872 nM and the TGI [8] was 10500 nM. It also gave a GI50 [9] of 190 nM, a TGI [9] of 1370 nM and a GI50 [10] of 259 nM. For the same compound, the TGI [10] was 785 nM, the GI50 [11] was 1210 nM and the TGI [11] was 5140 nM. It also gave a GI50 [12] of 661 nM, a TGI [12] of 2420 nM and a GI50 [13] of 207 nM. It also gave a TGI [13] of 605 nM, a GI50 [14] of 969 nM and a TGI [14] of 4040 nM. The GI50 [15] was 851 nM, the TGI [15] was 2560 nM and the GI50 [16] was 819 nM. It also gave a TGI [16] of 6510 nM, a GI50 [17] of 838 nM and a TGI [17] of 2770 nM. For the same compound, the GI50 [18] was 326 nM, the TGI [18] was 1220 nM and the GI50 [19] was 198 nM. The TGI [19] was 908 nM, the GI50 [20] was 885 nM and the TGI [20] was 2540 nM. It also gave a GI50 [21] of 1640 nM, a TGI [21] of 4100 nM and a GI50 [22] of 1200 nM. For the same compound, the TGI [22] was 11000 nM, the GI50 [23] was 477 nM and the TGI [23] was 1640 nM. For the same compound, the GI50 [24] was 160 nM, the TGI [24] was 351 nM and the GI50 [25] was 1440 nM. For the same compound, the TGI [25] was 7880 nM, the GI50 [26] was 452 nM and the TGI [26] was 1320 nM. It also gave a GI50 [27] of 2020 nM, a TGI [27] of 12400 nM and a GI50 [28] of 778 nM. The TGI [28] was 5310 nM, the GI50 [29] was 589 nM and the TGI [29] was 2410 nM. For the same compound, the GI50 [30] was 300 nM.
